Experimental findings from ChEMBL document CHEMBL1201862, “PubChem BioAssay data set” (2004) are described below.

Each structure is given as a SMILES string.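 Briefly, cells in 96-well plates were exposed to five compound concentrations for 48 h, and endpoints were estimated by linear interpolation. GI50 = concentration required for 50% inhibition of growth.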 Active and inactive are the calls of the source. No stated cut-off is given here; in the data, active = GI50 up to about 1.1 µM and inactive = higher.

Experiment in all cases: NCI-60 cell line screen, 48 h
For assay [1], the system named is 786-0.
The test system of assay [2] is CCRF-CEM.
The subject of assay [3] is COLO 205.
The subject of assay [4] is HCT-15.
The test system of assay [5] is HOP-62.
In assay [6] the test system is HOP-92.
Assay [7] concerns KM12.
The test system of assay [8] is MDA-MB-231.
In assay [9] the test system is NCI-H522.
Assay [10] relates to OVCAR-4.
In assay [11] the test system is OVCAR-5.
Assay [12] has as its system RPMI-8226.
Assay [13] deals with SF-268.
Assay [14] deals with SK-MEL-28.
The subject of assay [15] is SK-MEL-2.
Assay [16] deals with SK-OV-3.
In assay [17] the test system is SN12C.
Assay [18] relates to TK-10.
Assay [19] relates to U-251.
Assay [20] concerns UO-31.

In the case of `CC(CC[C@@]1(O)OC2C[C@H]3[C@@H]4CC[C@H]5CC(OC6OC(CO)C(OC7OC(CO)C(O)C(OC8OCC(O)C(O)C8O)C7OC7OC(CO)C(O)C(O)C7O)C(O)C6O)[C@H](O)CC5(C)[C@H]4CCC3(C)C2[C@@H]1C)COC1OC(CO)C(O)C(O)C1O` (stereo not given in full), the GI50 in assay [1] is 3.43 µM (inactive); in [2] it was 3.26 µM (inactive); in [3] it was 13 µM (inactive); in assay [4] it was 20.9 µM; in [5], 4.15 µM (inactive); in assay [6], 17.7 µM (inactive). The GI50 in [7] was 15.3 µM (inactive); in assay [8], 25.9 µM (inactive); in assay [9], 2.87 µM (inactive); in assay [10] it was 9.79 µM (inactive); in assay [11], 11.7 µM (inactive); in assay [12], 19.4 µM (inactive). Also, the GI50 in [13] was 2.48 µM (inactive); in assay [14], 29.2 µM (inactive); in assay [15] it was 13.4 µM (inactive); in [16], 13.2 µM (inactive); in [17] it was 2.35 µM (inactive); in assay [18], 2.39 µM (inactive). Further, the GI50 in assay [19] is 15.5 µM (inactive); in [20], 6.84 µM (inactive).

With `CC1OC(OC2C(O)COC(OC3C(C)OC(OC4C(OC(=O)[C@]56CCC(C)(C)C[C@@H]5C5=CCC7[C@@]8(C)C[C@H](O)[C@H](OC9OC(CO)C(O)C(OC%10OC(CO)C(O)C(O)C%10O)C9O)[C@@](C)(CO)[C@@H]8CC[C@@]7(C)[C@]5(C)CC6)OCC(O)C4O)C(O)C3OC3OCC(O)C(O)C3O)C2O)C(O)C(O)C1O` (stereo not given in full), the GI50 in assay [1] was 5.53 µM (inactive); in [2] it was 10.4 µM (inactive); in assay [3], 1.92 µM (inactive); in assay [4] it was 13.5 µM; in [5], 6.76 µM (inactive); in assay [6], 12.3 µM (inactive). In addition, the GI50 in [7] was 8.61 µM (inactive); in assay [8], 3.12 µM (inactive); in assay [9], 9.93 µM (inactive); in assay [10], 11.7 µM (inactive); in assay [11], 7.43 µM (inactive); in assay [12] it was 13.9 µM (inactive). The GI50 is 12.2 µM (inactive) in assay [13]; 2.27 µM (inactive) in assay [14]; 3.47 µM (inactive) in [15]; 14.8 µM (inactive) in assay [16]; 2 µM (inactive) in assay [17]; 10 µM (inactive) in [18]. Also, the GI50 in assay [19] is 5.62 µM (inactive); in assay [20], 3.15 µM (inactive).

With `CCOC(=O)N1C/C(=C\c2ccccc2)C(=O)/C(=C/c2ccccc2)C1`, the GI50 in assay [1] is 2.9 µM (inactive); in [2] it was 1.51 µM (inactive); in [3], 4.7 µM (inactive); in [4] it was 2.32 µM; in [5], 4.41 µM (inactive); in assay [6], 6.56 µM (inactive). The GI50 in [7] was 2.03 µM (inactive); in assay [8] it was 2.24 µM (inactive); in [9], 2.56 µM (inactive); in assay [10] it was 2.37 µM (inactive); in assay [11], 6.04 µM (inactive); in assay [12], 0.182 µM (active). Further, the GI50 in [13] was 4.17 µM (inactive); in assay [14] it was 2.39 µM (inactive); in assay [15] it was 6.7 µM (inactive); in [16], 9.2 µM (inactive); in assay [17], 2.17 µM (inactive); in assay [18] it was 8.34 µM (inactive). The GI50 in [19] is 1.45 µM (inactive); in assay [20] it was 5.85 µM (inactive).

Consider `CC(CN(C)C)C(=O)/C=C/c1ccc(Cl)c(Cl)c1` (stereo not given), for which the GI50 is 0.766 µM (active) in assay [1]; 0.453 µM (active) in [2]; 1.3 µM (inactive) in assay [3]; 1.59 µM in assay [4]; 2.96 µM (inactive) in [5]; 1.68 µM (inactive) in [6]. In addition, the GI50 in assay [7] is 1.31 µM (inactive); in assay [8], 1.73 µM (inactive); in assay [9], 1.55 µM (inactive); in assay [10], 4.76 µM (inactive); in [11] it was 2.06 µM (inactive); in assay [12], 0.338 µM (active). Moreover, the GI50 in [13] was 1.85 µM (inactive); in assay [14], 3.37 µM (inactive); in assay [15] it was 2 µM (inactive); in [16], 4.55 µM (inactive); in [17], 1.58 µM (inactive); in assay [18], 2.02 µM (inactive). Besides, the GI50 was 1.26 µM (inactive) in [19] and 1.69 µM (inactive) in assay [20].

`O=C(O)Cc1cc(Cl)ccc1O`: the GI50 is > 100 µM (inactive) in assay [1]; > 100 µM (inactive) in [2]; > 100 µM (inactive) in [3]; greater than 100 µM in [4]; > 100 µM (inactive) in assay [5]; > 100 µM (inactive) in assay [6]. The GI50 in assay [7], in assay [8], in [9], in assay [10], in assay [11] and in assay [12] was > 100 µM (inactive) throughout. Further, the GI50 in assay [13], in assay [14], in assay [15], in assay [16], in [17] and in assay [18] was > 100 µM (inactive) in each case. Moreover, the GI50 in [19] and in assay [20] was > 100 µM (inactive) throughout.

On to `CC1C(C#N)(C#N)C(C#N)=C(N)C1(Cl)[N+](=O)[O-]` (stereo not given), for which the GI50 in assay [1] is 5.48 µM (inactive); in [2], 2.18 µM (inactive); in assay [3] it was 4.9 µM (inactive); in [4], 3.39 µM; in [5] it was 3.08 µM (inactive); in [6], 2.08 µM (inactive). Further, the GI50 in assay [7] was 18.7 µM (inactive); in assay [8], 13.2 µM (inactive); in assay [9], 2.3 µM (inactive); in assay [10], 12.8 µM (inactive); in [11], 14.9 µM (inactive); in assay [12], 11.2 µM (inactive). The GI50 in assay [13] is 14.9 µM (inactive); in assay [15], 25.6 µM (inactive); in assay [16], 17 µM (inactive); in assay [17], 8.18 µM (inactive); in assay [18], 14.9 µM (inactive); in [19], 17.1 µM (inactive). Also, the GI50 in assay [20] is 15.5 µM (inactive).

On to `COc1c(O)cc2c(c1O)C1O[C@H](CO)C(O)[C@H](O)[C@H]1OC2=O` (stereo not given in full), for which the GI50 was > 100 µM (inactive) in [1]; > 100 µM (inactive) in [2]; > 100 µM (inactive) in assay [3]; greater than 100 µM in [4]; > 100 µM (inactive) in assay [5]; > 100 µM (inactive) in assay [6]. Besides, the GI50 in [7], in assay [8], in assay [9], in [10], in [11] and in assay [12] was > 100 µM (inactive) each time. The GI50 in assay [13], in assay [14], in assay [15], in [16], in assay [17] and in [18] was > 100 µM (inactive) each time. Also, the GI50 in assay [19] was > 100 µM (inactive).

Regarding `CC1C(C#N)(C#N)C(C#N)=C(N)C1(C)[N+](=O)[O-]` (stereo not given), the GI50 is 56 µM (inactive) in assay [1]; 32.4 µM (inactive) in assay [2]; 44.6 µM (inactive) in [3]; 33.7 µM in assay [4]; > 100 µM (inactive) in assay [5]; 2.92 µM (inactive) in assay [6]. The GI50 was > 100 µM (inactive) in [7]; > 100 µM (inactive) in assay [8]; 36.7 µM (inactive) in assay [9]; 47.4 µM (inactive) in assay [10]; > 100 µM (inactive) in assay [11]; 28.7 µM (inactive) in assay [12]. Besides, the GI50 in [13] was > 100 µM (inactive); in [15], > 100 µM (inactive); in assay [16] it was > 100 µM (inactive); in [17] it was 58.2 µM (inactive); in [18] it was > 100 µM (inactive); in assay [19], 48 µM (inactive). For the same compound, in [20], the GI50 was > 100 µM (inactive).

In the case of `Cc1cn(C2CC(N=[N+]=[N-])C(C(=O)O)O2)c(=O)[nH]c1=O` (stereo not given), the GI50 was > 100 µM (inactive) in assay [1]; > 100 µM (inactive) in [2]; > 100 µM (inactive) in assay [3]; greater than 100 µM in assay [4]; > 100 µM (inactive) in assay [5]; > 100 µM (inactive) in assay [6]. The GI50 in assay [7], in [8], in assay [9], in assay [10], in assay [11] and in assay [12] was > 100 µM (inactive) each time. The GI50 in assay [13], in [15], in assay [16], in assay [17], in assay [18] and in assay [19] was > 100 µM (inactive) throughout. Also, the GI50 in assay [20] was > 100 µM (inactive).

`O=C1O[C@H](COC(=O)c2ccccc2)[C@@H](OC(=O)c2ccccc2)C=C1OC(=O)c1ccccc1`: the GI50 is 18.2 µM (inactive) in assay [1]; 14.1 µM (inactive) in assay [2]; 19.6 µM (inactive) in [3]; 17.7 µM in assay [4]; 20 µM (inactive) in assay [5]; 21.8 µM (inactive) in assay [6]. Moreover, the GI50 is 33.7 µM (inactive) in assay [7]; 17.5 µM (inactive) in assay [8]; 20.2 µM (inactive) in assay [9]; 20.9 µM (inactive) in assay [10]; 21 µM (inactive) in assay [11]; 29.6 µM (inactive) in [12]. Further, the GI50 in [13] was 18.3 µM (inactive); in assay [15], 23.5 µM (inactive); in assay [16], > 100 µM (inactive); in assay [17] it was 18.8 µM (inactive); in assay [18], 27.9 µM (inactive); in assay [19], 18.2 µM (inactive). Besides, the GI50 in [20] was 30.9 µM (inactive).
